Where “and” joins values, the source holds several entries; their conditions need not be identical. Equal entries are not always repeated.
Tests used:
primary cortical neurons [1] = assay: HCA-induced neurotoxicity in primary cortical neurons; assay type: cell-based, rat
primary cortical neurons [2] = assay: Aβ-induced death of primary cortical neurons; assay type: cell-based, rat; conditions: 5 uM aged Aβ25-35; viability 24 hours later
Protocol: Primary cultures of cortical neurons were cultured from embryonic day 18 rats. The cultures were treated 1-2 days later with 5 uM of aged Aβ peptide (Aβ25-35; purchased from Sigma-Aldrich). Neuronal viability was assayed 24 hours later.

[3] = tested on: 3-NP-induced mouse model of Huntington's disease; assay: 3-nitropropionic acid (3-NP)-induced mouse model of Huntington's disease; assay type: in vivo
Protocol: 3-Nitropropionic acid administration and behavioral evaluation was done on 8-week old C57BL/6 male mice (Charles River Laboratories, Inc, Wilmington, Mass.) administered with 3-NP in ten intraperitoneal injections (50 mg/kg twice a day for 5 days) with or without HSB-13 (2 mg/kg). Injections of HSB-13 were performed 30 min before 3-NP administration. Control animals received saline injections. On the day following the 5 days of injection, locomotor activity was assessed using The TRU-SCAN® activity monitoring system (Coulborn Instruments, PA) as previously described (Chin et al., 2004; Chen et al., 2008b). The following behavioral parameters were selected: (1) Total movements time, (2) Total movement distance: the sum of all vectored X-Y coordinate changes in the floor plane, (3)Average distance per movement, (4) Mean velocity: the mean velocity of all X-T coordinate change defined movements. Following behavioral evaluation, the mice were deeply anesthetized and brains removed. The brains were fixed in 4% paraformaldehyde in 0.1 M phosphate buffer and cryoprotected in 20% sucrose in 0.1 M phosphate buffer. Coronal sections were cut on a cryostat at 40 microns and stained with cresyl violet (Sigma-Aldrich) as previously described (Chin et al., 2004; Chen et al., 2008b).
3-Nitropropionic acid administration and behavioral evaluation. 8-week old C57BL/6 male mice (Charles River Laboratories, Inc, Wilmington, Mass.) were administered with 3-NP in ten intraperitoneal injections (50 mg/kg twice a day for 5 days) with or without HSB-13 […]). Injections of HSB-13 were performed ˜30 min before 3-NP administration. Control animals received saline injections. On the day following the 5 days of injection, locomotor activity was assessed using THE TRU-SCAN® activity monitoring system (Coulborn Instruments, PA) as previously described (Chin et al. 2004). The following behavioral parameters were selected: (i) Total movements episodes: each movement in the floor plane is a series of coordinate changes with no rest for at least 1 sample interval, (2) Total movement distance: the sum of all vectored X-Y coordinate changes in the floor plane, and (3) Mean velocity: the mean velocity of all X-T coordinate change defined movements. Following behavioral evaluation, the mice were deeply anesthetized and brains removed. The brains were fixed in 4% paraformaldehyde in 0.1 M phosphate buffer and cryoprotected in 20% sucrose in 0.1 M phosphate buffer. Coronal sections were cut on a cryostat at 50 microns and stained with cresyl violet (Sigma).

[4] = tested on: flies expressing human APP695; assay: APP695-induced toxicity in Drosophila (survival of flies); assay type: in vivo
Protocol: Survival of flies expressing human APP695 compared to controls. […] Bars indicate mean±SEM. FIG. 8 is an image showing HSB-13 protects HT-22 cells against HCA-induced toxicity. HT-22 cells were treated with no additives (Control), 2 mM HCA, or 2 mM HCA+25 μM HSB-13. The appearance of the cultures at 24 hours after treatment is shown.
Expression of human APP695 was induced ubiquitously by crossing transgenic flies carrying a UAS-APP695 construct (Fossgreen et al., 1998) with flies containing an actin-GAL4 promoter using the UAS/GAL4 system (Brand and Perrimon, 1993). Flies were raised at 25° C. in the dark on 10% yeast paste containing different concentrations of HSB-13 (0, 2.5, 5, and 50 μM). The percentage of surviving APP695-expressing progeny was determined by comparing them to control progeny carrying no promoter construct obtained in the same cross and therefore raised under identical conditions as described previously (Greeve et al., 2004).

SMILES: Nc1ccc2c(c1)NC(=O)/C(=C/c1cc(Br)c(O)c(Br)c1)O2 [HSB-13, (Z)-6-amino-2-(3,′5′-dibromo-4′-hydrozybenzylidene)-2H-benzo[b][1,4]oxazin-3(4H)-one]
- protection against HCA-induced neurotoxicity (primary cortical neurons [1]): protects
- protection against Aβ toxicity (primary cortical neurons [2]): protects
- 3-NP-induced striatal degeneration (cresyl violet histology) ([3]; HSB-13 2 mg/kg body weight, 30 min before each 3-NP injection (50 mg/kg i.p. twice a day, 5 days), FIG. 7A): substantially reduced
- locomotor performance: total movement time, total movement distance, average distance per movement, mean velocity ([3]; HSB-13 2 mg/kg, versus 3-NP alone, 15 min period, FIG. 7B): markedly higher
- 3-NP-induced striatal degeneration (cresyl violet histology) ([3]; HSB-13 2.5 mg/kg body weight, FIG. 10A): substantially reduced
- locomotor performance: total movement episodes, total movement distance, mean velocity ([3]; HSB-13 2.5 mg/kg, versus 3-NP alone, FIG. 10B): markedly higher
- survival rate compared to untreated flies ([4]; food containing HSB-13, all p-values<0.05): approximately 10 times
- survival rate of APP-expressing flies compared to equally treated control flies ([4]; raised on food containing HSB-13, printed as 65% at 50 μM to 44% at 50 μM, untreated about 5%): 65% and 44%

Source: US8680094B2, “1, 4-benzoxazine compounds and derivatives thereof as therapeutic drugs for the treatment of neurodegenerative conditions” (Board of Regents, The University of Texas System, priority 2008, dated 2014)
